Results: patent US20250025550A1, “ADJUVANT COMPOUNDS AND FORMULATIONS” (ADJUVANCE TECHNOLOGIES, INC., priority 2021, published 2025)

Key:
[1] = tested on: mouse strains (C57BL/6J, BALB/cJ, CD-i); assay: Tolerability (mortality) of soluble TQL-1055 formulations across three mouse strains; assay type: in vivo
Procedure: The tolerability of soluble TQL-1055 formulations, including TQL-1055 FA (free acid) HP-β-CD and TQL-1055 ISKS (in situ potassium salt) HP-β-CD formulations, administered over a range of doses was examined across three mouse strains (C57BL/6J, BALB/cJ, CD-i). The following experimental groups were used. I.M. administration was performed.
The mortality rate 7 days after injection was observed.
A Logrank (Mantel-Cox) test was performed to assess survival distributions of the foregoing groups.

[2] = tested on: cancer patients; well (non-cancer) adult and child recipients; details: cited from earlier work
[3] = tested on: CD-i mice; assay: TQL-1055 HP-β-CD dose ranging study: weight loss and survival; details: for Deaths (D 7) / Deaths (D 21): CD-1 mice, I.M.; for Deaths (D 7): post dose 1; for Deaths (D 21): post dose 2 (day 14)
[4] = no antigen, HPβCD dose equivalent to group 4
[5] = with 0.1 μg PR8 HA, HPβCD dose equivalent to group 4

## QS-21
[1]; BALB/cJ mice, 20 μg I.M., 7 days after injection
  Deaths: 0/10
[1]; BALB/cJ mice, 40 μg I.M., 7 days after injection
  Deaths: 0/10
[1]; BALB/cJ mice, 60 μg I.M., 7 days after injection
  Deaths: 0/10
[1]; BALB/cJ mice, 80 μg I.M., 7 days after injection
  Deaths: 0/10
[1]; BALB/cJ mice, 100 μg I.M., 7 days after injection
  Deaths: 0/10
[1]; C57BL/6J mice, 20 μg I.M., 7 days after injection
  Deaths: 0/10
[1]; C57BL/6J mice, 40 μg I.M., 7 days after injection
  Deaths: 2/10
[1]; C57BL/6J mice, 60 μg I.M., 7 days after injection
  Deaths: 0/10
[1]; C57BL/6J mice, 80 μg I.M., 7 days after injection
  Deaths: 5/10
[1]; C57BL/6J mice, 100 μg I.M., 7 days after injection
  Deaths: 10/10
[1]; C57BL/6J, BALB/cJ, CD-1 compared
  Role of mouse strain in tolerability: C57BL/6 mice appear to be more sensitive
[1]; CD-1 mice, 20 μg I.M., 7 days after injection
  Deaths: 0/10
[1]; CD-1 mice, 40 μg I.M., 7 days after injection
  Deaths: 0/10
[1]; CD-1 mice, 60 μg I.M., 7 days after injection
  Deaths: 0/10
[1]; CD-1 mice, 80 μg I.M., 7 days after injection
  Deaths: 0/10
[1]; CD-1 mice, 100 μg I.M., 7 days after injection
  Deaths: 0/10
[1]; all three mouse strains, 20-100 μg I.M., 7 days after injection
  Mortality: at least some mice in the other groups (including QS-21) died
[2]; cancer patients, above it significant local and systemic side effects arise
  tolerated dose: 100 to 150 µg
[2]; well (non-cancer) adult and child recipients
  highest practical tolerable dose: 25 to 50 µg
[3]; with 0.1 μg PR8 HA, 25 μg
  Deaths (D 7): 0/10
  Deaths (D 21): 0/10
[3]; with 0.1 μg PR8 HA, 50 μg
  Deaths (D 7): 0/10
  Deaths (D 21): 0/10
[3]; with 0.1 μg PR8 HA, 100 μg
  Deaths (D 7): 2/10
  Deaths (D 21): 0/8

## 2-hydroxypropyl beta-cyclodextrin [HPβCD alone]
[3]; [4]
  Deaths (D 7): 0/10
  Deaths (D 21): 0/10
[3]; [5]
  Deaths (D 7): 0/10
  Deaths (D 21): 0/10
[3]; mice, TQL-1055 without HP-β-CD, or HP-β-CD without TQL-1055, any dose tested
  Mortality (follow-on studies, text): did not result in mortality

## CC1O[C@@H](OC2C(O)[C@@H](NC(=O)CCCCCCCCCCC(=O)O)C(CO)O[C@H]2OC(=O)[C@]23CCC(C)(C)CC2C2=CCC4C5(C)CC[C@H](O)[C@](C)(C=O)[C@@H]5CC[C@]4(C)[C@]2(C)CC3O)C(O)C(O)[C@H]1O[C@@H]1OC[C@@H](O)C(O)C1O (stereo partly drawn) [TQL1055 FA]
[3]; no antigen, 50 μg
  Deaths (D 7): 0/10
  Deaths (D 21): 0/10
[3]; no antigen, 100 μg
  Deaths (D 7): 0/10
  Deaths (D 21): 0/10
[3]; no antigen, 200 μg
  Deaths (D 7): 0/10
  Deaths (D 21): 0/10
[3]; with 0.1 μg PR8 HA, 50 μg
  Deaths (D 7): 0/10
  Deaths (D 21): 0/10
[3]; with 0.1 μg PR8 HA, 100 μg
  Deaths (D 7): 0/10
  Deaths (D 21): 0/10
[3]; with 0.1 μg PR8 HA, 198.68 μg
  Deaths (D 7): 0/10
  Deaths (D 21): 0/10
